Test results reported in PMC10538245, “Fragment merging approach for design, synthesis, and biological assessment of urea/acetyl hydrazide clubbed thienopyrimidine derivatives as GSK-3β inhibitors” (BMC Chemistry, 2023).
Where two headings read alike, the source gives them in different places.

Assays:
GSK-3β [1] = molecular target: T1, GSK-3β (Homo sapiens, UniProt P49841); assay: GSK-3β kinase inhibition, Z'-LYTE FRET assay (Thermo Fisher SelectScreen); assay type: biochemical; conditions: for inhibition at 100 µM: 100 μM single dose
GSK-3β [2] = molecular target: T1, GSK-3β; conditions: cited from earlier work
MCF7 = assay: NCI 60-cell line one dose antiproliferative assay; assay type: cell-based; conditions: Homo sapiens; MCF7, Breast Cancer, 10 µM one dose; read-out: Percent inhibition (cell growth inhibition %)
Source text: (§1) The National Cancer Institute "NCI", NIH, Bethesda, Maryland, USA (www.dtp.nci.nih.gov) chose six of the final compounds for the Developmental Therapeutic Program (DTP), codes (5a, 5b, 5c, 5d, 6a, 6b). The NCI screening service will favor compounds with drug-like modes of action based on computer-aided design. Selection The criterion for screening is the possibility of the submitted compounds to provide diversity to the NCI small molecule chemical collection. This screen employs 60 different Leukemia, melanoma, and additional tumor cell lines of the human from brain, kidney, lung, ovary, colon, breast, and prostate cancers. All compounds were picked based on their NCI codes. NSC: D-820696/1, NSC: D-820697/1, NSC: D-820698/1, NSC: D-820699/1, NSC: D-820700/1, NSC: D-820701/1. The initial 10 µM one dose percent inhibition assay was performed on the entire NCI 60 cell panel to examine the different chemotypes of this work. The results are presented as a percentage of cell growth on each of the 60 NCI cell line panels for each of the investigated substances in Table 2.
(§2) The NCI cancer screening procedure includes a comparison of all substances to the sixty NCI cell line panel representing leukemia, NSCLC, cell lines from breast cancer, prostate cancer, melanoma, CNS cancer, renal cancer, ovarian cancer, and colon cancer at a single point of 10 uM. The results of the single-dose screen can be presented using a mean graph.

LOX IMVI = assay: NCI 60-cell line one dose antiproliferative assay; assay type: cell-based; conditions: Homo sapiens, Melanoma, 10 µM one dose, read-out: Percent inhibition (cell growth inhibition %)
Source text: as §1, §2

MDA-MB-231/ATCC = assay: NCI 60-cell line one dose antiproliferative assay; assay type: cell-based; conditions: Homo sapiens, Breast Cancer, 10 µM one dose, read-out: Percent inhibition (cell growth inhibition %)
Source text: as §1, §2

IGROV1 = assay: NCI 60-cell line one dose antiproliferative assay; assay type: cell-based; conditions: Homo sapiens, IGROV-1; IGROV1, Ovarian Cancer, 10 µM one dose; read-out: Percent inhibition (cell growth inhibition %)
Source text: as §1, §2

HS 578 T = assay: NCI 60-cell line one dose antiproliferative assay; assay type: cell-based; conditions: Homo sapiens, Breast Cancer, 10 µM one dose, read-out: Percent inhibition (cell growth inhibition %)
Source text: as §1, §2

SN12C = assay: NCI 60-cell line one dose antiproliferative assay; assay type: cell-based; conditions: Homo sapiens, Renal Cancer, 10 µM one dose, read-out: Percent inhibition (cell growth inhibition %)
Source text: as §1, §2

786–0 = assay: NCI 60-cell line one dose antiproliferative assay; assay type: cell-based; conditions: Homo sapiens; 786–0, Renal Cancer, 10 µM one dose; read-out: Percent inhibition (cell growth inhibition %)
Source text: as §1, §2

SF-295 = assay: NCI 60-cell line one dose antiproliferative assay; assay type: cell-based; conditions: Homo sapiens; SF-295, CNS Cancer, 10 µM one dose; read-out: Percent inhibition (cell growth inhibition %)
Source text: as §1, §2

OVCAR-5 = assay: NCI 60-cell line one dose antiproliferative assay; assay type: cell-based; conditions: Homo sapiens; OVCAR-5, Ovarian Cancer, 10 µM one dose; read-out: Percent inhibition (cell growth inhibition %)
Source text: as §1, §2

NCI-H522 = assay: NCI 60-cell line one dose antiproliferative assay; assay type: cell-based; conditions: Homo sapiens; NCI-H522, Non-Small Cell Lung Cancer, 10 µM one dose; read-out: Percent inhibition (cell growth inhibition %)
Source text: as §1, §2

SF-268 = assay: NCI 60-cell line one dose antiproliferative assay; assay type: cell-based; conditions: Homo sapiens; SF-268, CNS Cancer, 10 µM one dose; read-out: Percent inhibition (cell growth inhibition %)
Source text: as §1, §2

K-562 = assay: NCI 60-cell line one dose antiproliferative assay; assay type: cell-based; conditions: Homo sapiens, K562; K-562, Leukemia, 10 µM one dose; read-out: Percent inhibition (cell growth inhibition %)
Source text: as §1, §2

UACC-62 = assay: NCI 60-cell line one dose antiproliferative assay; assay type: cell-based; conditions: Homo sapiens; UACC-62, Melanoma, 10 µM one dose; read-out: Percent inhibition (cell growth inhibition %)
Source text: as §1, §2

NCI-H226 = assay: NCI 60-cell line one dose antiproliferative assay; assay type: cell-based; conditions: Homo sapiens; NCI-H226, Non-Small Cell Lung Cancer, 10 µM one dose; read-out: Percent inhibition (cell growth inhibition %)
Source text: as §1, §2

SF-539 = assay: NCI 60-cell line one dose antiproliferative assay; assay type: cell-based; conditions: Homo sapiens; SF-539, CNS Cancer, 10 µM one dose; read-out: Percent inhibition (cell growth inhibition %)
Source text: as §1, §2

SK-MEL-5 = assay: NCI 60-cell line one dose antiproliferative assay; assay type: cell-based; conditions: Homo sapiens; SK-MEL-5, Melanoma, 10 µM one dose; read-out: Percent inhibition (cell growth inhibition %)
Source text: as §1, §2

A498 = assay: NCI 60-cell line one dose antiproliferative assay; assay type: cell-based; conditions: Homo sapiens; A498, Renal Cancer, 10 µM one dose; read-out: Percent inhibition (cell growth inhibition %)
Source text: as §1, §2

HOP-92 = assay: NCI 60-cell line one dose antiproliferative assay; assay type: cell-based; conditions: Homo sapiens; HOP-92, Non-Small Cell Lung Cancer, 10 µM one dose; read-out: Percent inhibition (cell growth inhibition %)
Source text: as §1, §2

T-47D = assay: NCI 60-cell line one dose antiproliferative assay; assay type: cell-based; conditions: Homo sapiens, T47D, Breast Cancer, 10 µM one dose, read-out: Percent inhibition (cell growth inhibition %)
Source text: as §1, §2

SR = assay: NCI 60-cell line one dose antiproliferative assay; assay type: cell-based; conditions: Homo sapiens, Leukemia, 10 µM one dose, read-out: Percent inhibition (cell growth inhibition %)
Source text: as §1, §2

PC-3 = assay: NCI 60-cell line one dose antiproliferative assay; assay type: cell-based; conditions: Homo sapiens; PC-3, Prostate Cancer, 10 µM one dose; read-out: Percent inhibition (cell growth inhibition %)
Source text: as §1, §2

U251 = assay: NCI 60-cell line one dose antiproliferative assay; assay type: cell-based; conditions: Homo sapiens, U-251; U251, CNS Cancer, 10 µM one dose; read-out: Percent inhibition (cell growth inhibition %)
Source text: as §1, §2

M14 = assay: NCI 60-cell line one dose antiproliferative assay; assay type: cell-based; conditions: Homo sapiens; M14, Melanoma, 10 µM one dose; read-out: Percent inhibition (cell growth inhibition %)
Source text: as §1, §2

MALME-3 M = assay: NCI 60-cell line one dose antiproliferative assay; assay type: cell-based; conditions: Homo sapiens, Melanoma, 10 µM one dose, read-out: Percent inhibition (cell growth inhibition %)
Source text: as §1, §2

UO-31 = assay: NCI 60-cell line one dose antiproliferative assay; assay type: cell-based; conditions: Homo sapiens; UO-31, Renal Cancer, 10 µM one dose; read-out: Percent inhibition (cell growth inhibition %)
Source text: as §1, §2

CAKI-1 = assay: NCI 60-cell line one dose antiproliferative assay; assay type: cell-based; conditions: Homo sapiens; CAKI-1, Renal Cancer, 10 µM one dose; read-out: Percent inhibition (cell growth inhibition %)
Source text: as §1, §2

SNB-19 = assay: NCI 60-cell line one dose antiproliferative assay; assay type: cell-based; conditions: Homo sapiens; SNB-19, CNS Cancer, 10 µM one dose; read-out: Percent inhibition (cell growth inhibition %)
Source text: as §1, §2

ACHN = assay: NCI 60-cell line one dose antiproliferative assay; assay type: cell-based; conditions: Homo sapiens, Renal Cancer, 10 µM one dose, read-out: Percent inhibition (cell growth inhibition %)
Source text: as §1, §2

SNB-75 = assay: NCI 60-cell line one dose antiproliferative assay; assay type: cell-based; conditions: Homo sapiens; SNB-75, CNS Cancer, 10 µM one dose; read-out: Percent inhibition (cell growth inhibition %)
Source text: as §1, §2

HCT-116 = assay: NCI 60-cell line one dose antiproliferative assay; assay type: cell-based; conditions: Homo sapiens; HCT-116, Colon Cancer, 10 µM one dose; read-out: Percent inhibition (cell growth inhibition %)
Source text: as §1, §2

NCI-H23 = assay: NCI 60-cell line one dose antiproliferative assay; assay type: cell-based; conditions: Homo sapiens; NCI-H23, Non-Small Cell Lung Cancer, 10 µM one dose; read-out: Percent inhibition (cell growth inhibition %)
Source text: as §1, §2

HCT-15 = assay: NCI 60-cell line one dose antiproliferative assay; assay type: cell-based; conditions: Homo sapiens; HCT-15, Colon Cancer, 10 µM one dose; read-out: Percent inhibition (cell growth inhibition %)
Source text: as §1, §2

RPMI-8226 = assay: NCI 60-cell line one dose antiproliferative assay; assay type: cell-based; conditions: Homo sapiens; RPMI-8226, Leukemia, 10 µM one dose; read-out: Percent inhibition (cell growth inhibition %)
Source text: as §1, §2

NCI-H322M = assay: NCI 60-cell line one dose antiproliferative assay; assay type: cell-based; conditions: Homo sapiens, Non-Small Cell Lung Cancer, 10 µM one dose, read-out: Percent inhibition (cell growth inhibition %)
Source text: as §1, §2

T1 sequence (P49841 whole entry): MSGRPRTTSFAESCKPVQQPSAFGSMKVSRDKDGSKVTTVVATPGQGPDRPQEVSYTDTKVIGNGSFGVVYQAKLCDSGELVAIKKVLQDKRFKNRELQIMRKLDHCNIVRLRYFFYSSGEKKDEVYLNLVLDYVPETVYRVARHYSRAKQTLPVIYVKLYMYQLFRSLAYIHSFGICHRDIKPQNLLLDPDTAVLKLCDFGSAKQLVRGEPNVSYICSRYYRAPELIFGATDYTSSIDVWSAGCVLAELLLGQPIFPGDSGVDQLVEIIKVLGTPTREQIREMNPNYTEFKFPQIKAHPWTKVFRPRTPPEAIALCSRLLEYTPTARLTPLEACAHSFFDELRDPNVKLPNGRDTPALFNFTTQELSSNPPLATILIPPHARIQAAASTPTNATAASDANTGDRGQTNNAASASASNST

melting point [°C] | inhibition at 100 µM (GSK-3β [1]) [%] | Compound | inhibition at 10 µM (MCF7) [%] | inhibition at 10 µM (LOX IMVI) [%] | inhibition at 10 µM (MDA-MB-231/ATCC) [%] | inhibition at 10 µM (SN12C) [%] | inhibition at 10 µM (786–0) [%] | inhibition at 10 µM (SF-295) [%] | inhibition at 10 µM (OVCAR-5) [%] | inhibition at 10 µM (NCI-H522) [%] | inhibition at 10 µM (K-562) [%] | inhibition at 10 µM (UACC-62) [%] | inhibition at 10 µM (SF-539) [%] | inhibition at 10 µM (A498) [%] | inhibition at 10 µM (T-47D) [%] | inhibition at 10 µM (PC-3) [%] | inhibition at 10 µM (U251) [%] | inhibition at 10 µM (M14) [%] | inhibition at 10 µM (UO-31) [%] | inhibition at 10 µM (CAKI-1) [%] | also measured
300 | 68 | O=C(Nc1ccc(Cl)c(C(F)(F)F)c1)Nc1ncnc2sc3c(c12)CCCC3 [9c, 1-(4-Chloro-3-(trifluoromethyl)phenyl)-3-(5,6,7,8tetrahydrobenzo[4,5]thieno[2,3-d]pyrimidin-4-yl)urea] |  |  |  |  |  |  |  |  |  |  |  |  |  |  |  |  |  |  | 
 |  | COc1ccc(-c2cc3c(NC(=O)c4cccc(F)c4)ncnc3o2)cc1 [II] |  |  |  |  |  |  |  |  |  |  |  |  |  |  |  |  |  |  | IC50 (GSK-3β [2]): > 35 µM
280 to 281 | 24 | COc1ccc(C=NNC(=O)COc2ncnc3sc4c(c23)CCCC4)c(OC)c1OC [5a, 2-((5,6,7,8-Tetrahydrobenzo [4,5]thieno[2,3-d]pyrimidin-4-yl)oxy)-N'-(2,3,4-trimethoxybenzylidene) acetohydrazide] | 10.7 | 4.82 | 6.61 | 5.91 | 0.81 | 0.79 | 5 | 5.39 | 7.93 | 8.06 | 5.93 | 11.8 | 4.24 | 2.52 | 0.3 | 1.68 | 23.3 | 7.04 | inhibition at 10 µM (IGROV1): 1.47%; inhibition at 10 µM (HS 578 T): 7.21%; inhibition at 10 µM (SF-268): 0.3%; inhibition at 10 µM (NCI-H226): 0.3%; inhibition at 10 µM (SK-MEL-5): 1.37%; inhibition at 10 µM (HOP-92): 2.18%; inhibition at 10 µM (SR): 2.15%; inhibition at 10 µM (MALME-3 M): 2.96%; inhibition at 10 µM (SNB-19): 6.88%; inhibition at 10 µM (ACHN): 0.55%; inhibition at 10 µM (SNB-75): 28.5%; inhibition at 10 µM (GSK-3β [1]; 10 μM): 6%
270 to 272 | 82 | O=C(COc1ncnc2sc3c(c12)CCCC3)NNC(=S)Nc1ccccc1 [6a] | 12.3 | 1.31 | 3.71 | 3.79 | 1.23 | 2.64 | 3.88 | 5.09 | 7.06 | 7.2 | 2.42 | 47 | 6.64 | 3.65 | 3.33 | 0.96 | 14.8 | 1.14 | inhibition at 10 µM (HCT-116): 1.5%; inhibition at 10 µM (NCI-H23): 3.1%; inhibition at 10 µM (HCT-15): 0.17%; inhibition at 10 µM (RPMI-8226): 3.86%; inhibition at 10 µM (NCI-H322M): 0.95%; inhibition at 10 µM (SNB-19): 5.27%; inhibition at 10 µM (SNB-75): 14.6%; IC50 (GSK-3β [1]; five doses 10 nM–100 µM): 17.3 µM
